Measured values reported in US20190183894A1, “METHOD OF TREATMENT OF DIABETIC FOOT ULCERS” (Malesil Research & Technology LLC, priority 2017, published 2019).
Read-outs that look alike come from different tables or passages of the source.

Columns and labels:
[1] = test system: diabetic patients with grade 2 and grade 3 ulcers (Wagner classification); format: in vivo, human
Method: In order to assess the effect of sildenafil maleate in treatment of diabetic foot ulcers, a 12-week open-label longitudinal study was conducted to compare the conventional treatment and the conventional treatment with simultaneous administration of sildenafil maleate.
Diabetic patients with grade 2 and grade 3 ulcers were selected, according to Wagner classification and complying with the following inclusion and exclusion criteria:
Inclusion Criteria: • Male or female patients with type-2 Diabetes Mellitus • Age younger than 80 years • Grade-2 or -3 foot or leg ulcer, of any origin according to Wagner classification, without compromising tendons nor bone, with a progression time not higher than 3 months. • Presence or absence of localized infection • Without peripheral vascular obstruction
Exclusion Criteria • Type-1 Diabetes Mellitus patients • Grade-4 foot or leg ulcer according to Wagner classification or foot or knuckle necrosis • Peripheral vascular obstruction (ankle/arm index lower than 0.3) • Patients with creatinine higher than 1.2 mg/dL or blood urea nitrogen (BUN) higher than 50 • Transaminases 2 times above baseline • Microalbuminuria higher than 100
Patients who meet inclusion and exclusion criteria, who voluntarily accept to participate in the study and further signing a written consent, are randomly assigned to two study groups:
Group I: Conventional treatment
Group II: Conventional treatment with simultaneous administration of sildenafil maleate.
Patients are required to perform wound treatment and to register lesion progression.
Visit 1 • Signature of written consent • Physical examination • Petition of clinical lab examinations: complete blood count, glycosilated hemoglobin (HbA1c), total colesterol, total lipids, triglycerides, HDL-colesterol, urea, creatinine, microalbumina, aspartate aminotransferase (TGO), alanine aminotransferase (TGP), reactive, ultra-sensitive C-protein (PCR-u), urine test, pre and postprandial glycemia, lesion culture when required. • Conventional healing of lesion • Arterial Doppler request of affected limb • Provide treatment with antibiotics when necessary
Visit 2 (1 to 3 Days after Visit 1) • Interpretation of lab examination and Doppler study • Clinical/physical lesion examination • Patient inclusion/exclusion decision into the study • Random assignment of study groups • Registration of lesion characteristics (lesion photographs) • Assessment of metabolic control
Visit 3 (1 to 3 Days after Visit 2) • Registration of lesion progression (lesion photographs) • Assessment of patient's metabolic control • Delivery of corresponding medicaments (antibiotics and sildenafil maleate as applicable) • Registration de adverse events
Visit 4 Until Week 12 of Study (2 to 3 Times Per Week) • Registration of lesion progression (lesion photographs) • Registration de adverse events • Assessment of metabolic control
Visit 5 (1 to 5 Days after Final Visit) • Registration of lesion progression (lesion photographs) • Registration of adverse events • Compliance with study medication intake • Education for future lesion prevention
Wound treatment applied to all patients during each visit consists of cleaning with […] and distilled water, using sterile material; ointment MEBO® (Moist exposed Burn Treatment) was locally applied and dressing with sterile gauze when needed.
Study medication was delivered in accordance with the previously established protocol; compliance with medication intake and presence of adverse events was verified. Medication was suspended in case of showing any adverse effect, even a mild event associated with study medicament (sildenafil maleate).

[2] = cited from earlier work

sildenafil maleate
effect on macro and microcirculation, granulation and healing of ulcers ([1]; 10-mg daily dose, oral, diabetic foot patients): improvement in macro and microcirculation
recovery of patients with previous amputations ([1]; Group II patients who had previous amputations): total recovery
blood flow and health status of lower limbs after end of treatment ([1]; Group II patients whose treatment concluded before the 12 weeks): kept an improvement in blood flow
patients who obtained a satisfactory result (lesion healing) ([1]; Group II: conventional treatment with simultaneous sildenafil maleate): 100%
adverse events ([1]; in vivo): did not experience adverse events
side effects ([1]; in vivo, po): does not show side effects
lower healing time than group with conventional treatment ([1]; patients with grade 2 ulcers): 20 days
Average healing time (Group II) ([1]; ulcer grade 2 according to Wagner scale): 47 days
Average healing time (Group II) ([1]; ulcer grade 3 according to Wagner scale): 81 days
Average healing time (Group II) ([1]; ulcer grades 2 and 3 according to Wagner scale): 55 days
decrease of recovery time ([1]; vs conventional treatment, regardless of ulcer grade and lesion area): about 20 days
absorption compared with sildenafil citrate ([2]; in vivo): faster absorption
bioequivalence with sildenafil citrate ([2]; in vivo): bioequivalent
plasma protein binding ([2]; in vivo): mostly bound to plasma proteins
delay of maximum peak ([2]; ingested during a high fat content meal): 60 min
time to maximum concentration ([2]; oral administration, fasting subjects): 60 min
distribution volume ([2]; stationary media (steady state)): 105 L
